Results taken from EP0354046A2 (MAY & BAKER LIMITED, priority 1988, dated 1990).

Key:
Type in all cases: in vivo
Abutilon theophrasti = assay: Glasshouse experiment 3, % inhibition of growth (fresh weight, 19 days); details: for ED₅₀ Abutilon theophrasti 1-2 leaves: applied alone; for % inhibition of growth Abutilon theophrasti 1-2 leaves: Compound 126 0 g/ha
Description: (§1) A series of experiments was carried out to determine the nature of the biological interaction between bromoxynil and five compounds of general formula I on a range of weed species. The 3-benzoyl-piperidine-2,4-dione derivatives were compounds 1, 74, 99, 110 and 126. […] The growth stages of the plants at spraying are also presented with the results. Agricultural surfactant (nonyl phenol ethylene oxide condensate containing 9 moles ethylene oxide marketed as 'Agral') was added to all spray dilutions to give 0.2% v/v concentration.
(§2) After spraying the pots were arranged in randomised blocks in a glasshouse and watered as necessary. After 19 days the fresh weight of vegetation in each pot was determined. The mean fresh weights were used to calculate the percentage inhibition of each species thus [formula]
(§3) E = X + Y […] where E, X and Y are percentage inhibition of growth.
(§4) The ED values were then used to plot an isobole for each species according to the method of P.M.L. Tammes op cit. The results of percentage inhibition of growth, the ED values calculated from them and the calculated expected values are given in Tables 1-8.

Amaranthus retroflexus = assay: as above; details: for ED₉₀ Amaranthus retroflexus 2-4 leaves: applied alone; for % inhibition of growth Amaranthus retroflexus 2-4 leaves: Compound 126 0 g/ha
Description: as §1, §2, §3, §4

Brassica kaber = assay: as above; details: for ED₉₀ Brassica kaber 2-3 leaves: applied alone; for % inhibition of growth Brassica kaber 2-3 leaves: Compound 126 0 g/ha
Description: as §1, §2, §3, §4

[1] = system: Brachiaria plantaginea (BRAPL); assay: Field experiment, post-emergence spray, % control of grass weed; details: Bromoxynil 250g/ha; 29 days after application
Description: (§5) The following control figures were recorded on the grass weeds Brachiaria plantaginea (BRAPL), Digitaria horizontalis (DIGHO) and Eleusine indica (ELEIN) 29 days after application.

[2] = system: Digitaria horizontalis (DIGHO); assay: as above; details: Bromoxynil 250g/ha; 29 days after application
Description: as §5

Eleusine indica (ELEIN) = assay: as above; details: Bromoxynil 250g/ha; 29 days after application
Description: as §5

Echinochloa crus-galli [3] = assay: Glasshouse experiment 2, percentage phytotoxicity after 19 days; details: applied alone
Description: Agricultural surfactant-nonylphenol ethylene oxide condensate containing 9 moles ethylene oxide was added to all spray dilutions to give 0.2% v/v concentration.
After spraying, the pots were arranged in randomised blocks in a glasshouse, watered as necessary, and assessed after 19 days for percentage phytotoxicity (reduction in green area compared with unsprayed plants) (0 = no effect; 100 = complete destruction).
The results were then used to plot an isobole with a "one-sided effect" according to the methods of P.M.L. Tammes op.cit.

Chenopodium album = assay: Glasshouse experiment 3, % inhibition of growth (fresh weight, 19 days); details: 2-6 leaves
Description: as §1, §2, §3, §4

Digitaria sanguinalis = assay: as above; details: Bromoxynil alone
Description: as §1, §2, §3, §4

Echinochloa crus-galli [4] = assay: as above; details: Bromoxynil alone; 3 leaves; Table 3
Description: as §1, §2, §3, §4

Eleusine indica = assay: as above; details: Bromoxynil alone
Description: as §1, §2, §3, §4

Solanum nigrum = assay: as above; details: 2-3 leaves
Description: as §1, §2, §3, §4

[5] = Abutilon theophrasti, read-out: % inhibition of growth Abutilon theophrasti 1-2 leaves
[6] = Amaranthus retroflexus, read-out: % inhibition of growth Amaranthus retroflexus 2-4 leaves
[7] = Mutarda arvensis, read-out: % inhibition of growth Brassica kaber 2-3 leaves
[8] = Bromoxynil alone, 2 leaves, Table 6
[9] = Bromoxynil alone, 2 leaves, Table 7
[10] = Bromoxynil alone 2,4,8,16,31 g/ha

With `CS(=O)(=O)c1ccc(C(=O)C2C(=O)CCNC2=O)c([N+](=O)[O-])c1` (stereo not shown) [Compound 110, 3-(4-methylsulphonyl-2-nitrobenzoyl)piperidine-2,4-dione] the ED₅₀ (Abutilon theophrasti; Compound 110 alone, 1-2 leaves) was “ED₅₀(g/ha) 22.3”, the “% inhibition of growth” value (Amaranthus retroflexus; Compound 110 alone 1,2,4,8,16,31,63 g/ha, 2 leaves) was 100% and the ED₉₀ (Amaranthus retroflexus; Compound 110 alone, 2 leaves) was “ED₉₀(g/ha) 12.6”. The ED₉₀ (Brassica kaber; Compound 110 alone, 2 leaves) was “ED₉₀(g/ha) 13.6”.
Compound `CS(=O)(=O)c1ccc(C(=O)C2C(=O)CCNC2=O)c(Cl)c1` (stereo not shown) [Compound 126, 3-(2-chloro-4-methylsulphonylbenzoyl)piperidine-2,4-dione] has an inhibition at 1 g/ha (Abutilon theophrasti; [5]) of 0%, an inhibition at 2 g/ha (Abutilon theophrasti; [5]) of 38% and an inhibition at 4 g/ha (Abutilon theophrasti; [5]) of 56%. It also gave an inhibition at 8 g/ha (Abutilon theophrasti; [5]) of 68%, an inhibition at 16 g/ha (Abutilon theophrasti; [5]) of 88% and an inhibition at 31 g/ha (Abutilon theophrasti; [5]) of 94%. For the same compound, the inhibition at 63 g/ha (Abutilon theophrasti; [5]) was 96%, the “ED₅₀ Abutilon theophrasti 1-2 leaves” value (Abutilon theophrasti) was “ED₅₀(g/ha) 20.1” and the inhibition at 1 g/ha (Amaranthus retroflexus; [6]) was 0%. For the same compound, the inhibition at 2 g/ha (Amaranthus retroflexus; [6]) was 50%, the inhibition at 4 g/ha (Amaranthus retroflexus; [6]) was 91% and the inhibition at 8 g/ha (Amaranthus retroflexus; [6]) was 91%. It also gave an inhibition at 16 g/ha (Amaranthus retroflexus; [6]) of 99%, an inhibition at 31 g/ha (Amaranthus retroflexus; [6]) of 100% and an inhibition at 63 g/ha (Amaranthus retroflexus; [6]) of 100%. For the same compound, the “ED₉₀ Amaranthus retroflexus 2-4 leaves” value (Amaranthus retroflexus) was “ED₉₀(g/ha) 7.6”, the inhibition at 1 g/ha (Brassica kaber; [7]) was 0% and the inhibition at 2 g/ha (Brassica kaber; [7]) was 0%. It also gave an inhibition at 4 g/ha (Brassica kaber; [7]) of 0%, an inhibition at 8 g/ha (Brassica kaber; [7]) of 17% and an inhibition at 16 g/ha (Brassica kaber; [7]) of 26%. For the same compound, the inhibition at 31 g/ha (Brassica kaber; [7]) was 48%, the inhibition at 63 g/ha (Brassica kaber; [7]) was 80% and the “ED₉₀ Brassica kaber 2-3 leaves” value (Brassica kaber) was “ED₉₀(g/ha) 90.6”.
For `N#Cc1cc(Br)c(O)c(Br)c1` [Bromoxynil, 3,5-dibromo-4-hydroxybenzonitrile], the “% control observed” value [1] was 0%, the “% control observed” value [2] was 0% and the “% control observed” value (Eleusine indica (ELEIN)) was 0%. For the same compound, the “activity on Echinochloa crus-galli” value (Echinochloa crus-galli [3]) was “no activity”, the ED₉₀ (Abutilon theophrasti; Bromoxynil alone, 1-2 leaves, Table 5) was “ED₉₀(g/ha) 119.9” and the ED₉₀ (Abutilon theophrasti; Bromoxynil alone, 1-2 leaves, Table 6) was “ED₉₀(g/ha) 129.6”. The ED₅₀ (Abutilon theophrasti; Bromoxynil alone, 1-2 leaves, Table 7) was “ED₅₀(g/ha) 78.6”, the ED₅₀ (Abutilon theophrasti; Bromoxynil alone, 3 leaves, Table 1) was “ED₅₀(g/ha) 106.3” and the “% inhibition of growth Abutilon theophrasti 1-2 leaves” value (Abutilon theophrasti; Bromoxynil 18 g/ha) was 0%. The “% inhibition of growth Abutilon theophrasti 1-2 leaves” value (Abutilon theophrasti; Bromoxynil 35 g/ha) was 13%, the “% inhibition of growth Abutilon theophrasti 1-2 leaves” value (Abutilon theophrasti; Bromoxynil 70 g/ha) was 44% and the “% inhibition of growth Abutilon theophrasti 1-2 leaves” value (Abutilon theophrasti; Bromoxynil 140 g/ha) was 96%. The “% inhibition of growth Abutilon theophrasti 1-2 leaves” value (Abutilon theophrasti; Bromoxynil 280 g/ha) was 99%, the “ED₅₀ Abutilon theophrasti 1-2 leaves” value (Abutilon theophrasti) was “ED₅₀(g/ha) 135.7” and the ED₉₀ (Amaranthus retroflexus; Bromoxynil alone, 2 leaves, Table 1) was “ED₉₀(g/ha) 120.3”. The ED₉₀ (Amaranthus retroflexus; Bromoxynil alone, 2 leaves, Table 5) was “ED₉₀(g/ha) 142.8”, the ED₉₀ (Amaranthus retroflexus; [8]) was “ED₉₀(g/ha) 142.9” and the ED₉₀ (Amaranthus retroflexus; [9]) was “ED₉₀(g/ha) 246.2”. The “% inhibition of growth Amaranthus retroflexus 2-4 leaves” value (Amaranthus retroflexus; Bromoxynil 18 g/ha) was 0%, the “% inhibition of growth Amaranthus retroflexus 2-4 leaves” value (Amaranthus retroflexus; Bromoxynil 35 g/ha) was 4% and the “% inhibition of growth Amaranthus retroflexus 2-4 leaves” value (Amaranthus retroflexus; Bromoxynil 70 g/ha) was 8%. For the same compound, the “% inhibition of growth Amaranthus retroflexus 2-4 leaves” value (Amaranthus retroflexus; Bromoxynil 140 g/ha) was 84%, the “% inhibition of growth Amaranthus retroflexus 2-4 leaves” value (Amaranthus retroflexus; Bromoxynil 280 g/ha) was 90% and the “ED₉₀ Amaranthus retroflexus 2-4 leaves” value (Amaranthus retroflexus) was “ED₉₀(g/ha) 233.3”. For the same compound, the ED₉₀ (Brassica kaber; Bromoxynil alone, 2-3 leaves, Table 1) was “ED₉₀(g/ha) 67.0”, the ED₉₀ (Brassica kaber; [8]) was “ED₉₀(g/ha) 42.7” and the ED₉₀ (Brassica kaber; [9]) was “ED₉₀(g/ha) 63.9”. The “% inhibition of growth Brassica kaber 2-3 leaves” value (Brassica kaber; Bromoxynil 18 g/ha) was 30%, the “% inhibition of growth Brassica kaber 2-3 leaves” value (Brassica kaber; Bromoxynil 35 g/ha) was 55% and the “% inhibition of growth Brassica kaber 2-3 leaves” value (Brassica kaber; Bromoxynil 70 g/ha) was 82%. The “% inhibition of growth Brassica kaber 2-3 leaves” value (Brassica kaber; Bromoxynil 140 g/ha) was 97%, the “% inhibition of growth Brassica kaber 2-3 leaves” value (Brassica kaber; Bromoxynil 280 g/ha) was 98% and the “ED₉₀ Brassica kaber 2-3 leaves” value (Brassica kaber) was “ED₉₀(g/ha) 102.4”. For the same compound, the “% inhibition of growth” value (Chenopodium album; [10]) was 21%, the ED₉₀ (Chenopodium album; Bromoxynil alone) was “ED₉₀(g/ha) 69.34” and the ED₅₀ (Digitaria sanguinalis; 3-4 leaves, Table 2) was “ED₅₀ (g/ha) ∞”. For the same compound, the ED₉₀ (Digitaria sanguinalis; 3 leaves, Table 3) was “ED₉₀(g/ha) ∞”, the ED₉₀ (Echinochloa crus-galli [4]) was “ED₉₀(g/ha) ∞” and the ED₉₀ (Eleusine indica; 3-4 leaves, Table 2) was “ED₉₀ (g/ha) ∞”. For the same compound, the ED₉₀ (Eleusine indica; 3 leaves, Table 3) was “ED₉₀(g/ha) ∞”, the “% inhibition of growth” value (Solanum nigrum; [10]) was 91% and the ED₉₀ (Solanum nigrum; Bromoxynil alone) was “ED₉₀(g/ha) 21.27”.
